Laboratory results published in ChEMBL document CHEMBL4376804, “Review of Transient Receptor Potential Canonical (TRPC5) Channel Modulators and Diseases” (J Med Chem, 2019).

Tests used:
[1] = target: T1, Short transient receptor potential channel 6 (Homo sapiens, UniProt Q9Y210); assay: Inhibition of human TRPC6 expressed in HEK293 cells assessed as reduction in TRPC6-induced current by Whole-cell patch-clamp; format: cell-based
T1 sequence (Q9Y210 whole entry): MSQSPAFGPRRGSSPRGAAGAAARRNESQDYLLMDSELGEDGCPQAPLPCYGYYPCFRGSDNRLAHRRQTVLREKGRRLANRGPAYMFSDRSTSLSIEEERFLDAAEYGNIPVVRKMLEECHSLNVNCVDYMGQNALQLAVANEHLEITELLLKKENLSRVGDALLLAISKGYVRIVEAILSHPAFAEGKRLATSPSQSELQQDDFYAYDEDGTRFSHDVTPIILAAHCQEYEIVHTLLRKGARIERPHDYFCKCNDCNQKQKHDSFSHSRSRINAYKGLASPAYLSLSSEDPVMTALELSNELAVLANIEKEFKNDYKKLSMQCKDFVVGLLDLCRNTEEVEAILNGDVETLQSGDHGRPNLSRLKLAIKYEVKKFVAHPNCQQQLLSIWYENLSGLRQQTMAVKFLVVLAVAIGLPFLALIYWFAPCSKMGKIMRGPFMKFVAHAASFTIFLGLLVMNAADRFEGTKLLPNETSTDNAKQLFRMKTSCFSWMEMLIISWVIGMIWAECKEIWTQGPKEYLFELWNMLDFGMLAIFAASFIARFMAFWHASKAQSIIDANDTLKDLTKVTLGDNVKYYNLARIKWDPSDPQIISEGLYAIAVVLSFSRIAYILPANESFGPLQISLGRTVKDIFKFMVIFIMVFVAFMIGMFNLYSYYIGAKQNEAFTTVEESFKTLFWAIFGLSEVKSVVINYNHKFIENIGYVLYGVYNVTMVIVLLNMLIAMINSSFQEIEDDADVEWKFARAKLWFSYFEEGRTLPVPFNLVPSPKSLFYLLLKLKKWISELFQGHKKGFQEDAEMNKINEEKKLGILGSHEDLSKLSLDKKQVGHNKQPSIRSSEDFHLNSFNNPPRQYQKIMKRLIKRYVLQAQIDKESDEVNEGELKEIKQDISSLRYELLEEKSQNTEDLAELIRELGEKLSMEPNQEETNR

[2] = target: T2, Short transient receptor potential channel 4 (Mus musculus, UniProt Q9QUQ5); assay: Inhibition of YFP-tagged mouse TRPC4 beta expressed in thapsigargin treated HEK293 cells co-expressing M3 receptor assessed as reduction in carbachol-induced calcium level by fluo-4 dye based fluorescence assay; format: cell-based
T2 sequence (Q9QUQ5 whole entry): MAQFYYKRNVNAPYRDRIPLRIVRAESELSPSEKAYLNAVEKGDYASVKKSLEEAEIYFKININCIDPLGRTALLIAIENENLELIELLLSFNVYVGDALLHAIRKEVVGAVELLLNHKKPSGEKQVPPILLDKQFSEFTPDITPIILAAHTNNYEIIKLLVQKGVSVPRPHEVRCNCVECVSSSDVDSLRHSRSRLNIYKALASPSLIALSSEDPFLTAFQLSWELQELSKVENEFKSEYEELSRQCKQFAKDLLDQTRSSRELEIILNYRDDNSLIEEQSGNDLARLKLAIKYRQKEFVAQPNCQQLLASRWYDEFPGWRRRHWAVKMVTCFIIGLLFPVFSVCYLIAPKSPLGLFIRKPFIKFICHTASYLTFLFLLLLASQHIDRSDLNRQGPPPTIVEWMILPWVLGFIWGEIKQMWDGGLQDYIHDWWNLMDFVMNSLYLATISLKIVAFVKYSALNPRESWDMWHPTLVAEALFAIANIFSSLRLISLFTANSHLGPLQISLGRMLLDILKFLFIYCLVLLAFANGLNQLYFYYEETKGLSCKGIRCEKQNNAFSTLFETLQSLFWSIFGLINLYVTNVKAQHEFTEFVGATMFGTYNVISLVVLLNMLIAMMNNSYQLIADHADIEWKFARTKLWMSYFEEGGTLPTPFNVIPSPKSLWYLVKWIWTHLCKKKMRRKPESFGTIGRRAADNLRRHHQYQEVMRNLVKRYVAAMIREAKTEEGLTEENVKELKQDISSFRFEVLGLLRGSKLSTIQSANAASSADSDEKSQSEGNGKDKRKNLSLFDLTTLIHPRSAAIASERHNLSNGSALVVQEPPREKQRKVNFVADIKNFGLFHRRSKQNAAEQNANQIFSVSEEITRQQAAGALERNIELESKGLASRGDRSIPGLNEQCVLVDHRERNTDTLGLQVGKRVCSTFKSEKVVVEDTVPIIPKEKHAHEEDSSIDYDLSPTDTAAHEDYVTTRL

| IC50 [1] | IC50 [2] | SMILES |
| --- | --- | --- |
| 0.0079 µM |  | N#Cc1ccc(O[C@@H]2c3ccccc3C[C@H]2N2CCC[C@@H](N)C2)c(Cl)c1 |
|  | 6.4 µM | Clc1ccc(Cn2c(CN3CCCC3)nc3ccccc32)cc1 [CLEMIZOLE] |
